Results published in patent US10131675B2 (Genentech, Inc., priority 2015, dated 2018).

What follows are compounds tested against DLK (Homo sapiens (Human), UniProt Q12852) (assay: DLK TR-FRET Inhibition Assay). Conditions: N-terminally GST-tagged DLK (catalytic domain amino acid 1-520), MKK4 K131M substrate, 30 μM ATP; read-out: DLK HTRF Ki.
Sequence of DLK (Q12852 1-520): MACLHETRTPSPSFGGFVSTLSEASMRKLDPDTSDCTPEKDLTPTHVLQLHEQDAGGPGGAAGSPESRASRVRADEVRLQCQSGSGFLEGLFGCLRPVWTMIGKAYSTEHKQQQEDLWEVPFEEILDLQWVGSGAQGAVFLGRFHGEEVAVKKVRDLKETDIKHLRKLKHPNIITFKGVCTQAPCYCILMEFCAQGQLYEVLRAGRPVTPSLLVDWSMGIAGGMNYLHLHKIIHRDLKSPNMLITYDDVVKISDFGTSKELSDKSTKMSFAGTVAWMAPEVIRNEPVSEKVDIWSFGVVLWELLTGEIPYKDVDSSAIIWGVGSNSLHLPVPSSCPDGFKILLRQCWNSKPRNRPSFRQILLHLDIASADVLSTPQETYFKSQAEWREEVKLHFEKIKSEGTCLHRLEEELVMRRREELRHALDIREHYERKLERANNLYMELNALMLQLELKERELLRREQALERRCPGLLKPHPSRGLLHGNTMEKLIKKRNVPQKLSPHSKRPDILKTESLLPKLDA
Type: biochemical
Experimental: DLK kinase reactions (20 μL) containing 5 nM N-terminally GST-tagged DLK (catalytic domain amino acid 1-520) (Carna Bioscience), 40 nM N-terminally HIS tagged MKK4 K131M substrate, and 30 μM ATP in kinase reaction buffer (50 mM HEPES, pH 7.5, 0.01% Triton X-100, 0.01% Bovine γ-Globulins, 2 mM DTT, 10 mM MgCl2 and 1 mM EGTA), and testing compound 1:3 serial diluted starting at 20 uM were incubated at ambient temperature for 60 minutes in 384 well OptiPlate (Perkin Elmer). To quench kinase reactions and detect phosphorylated MKK4, 15 μL of TR-FRET antibody mixture containing 2 nM anti-phosphorylated MKK4 labeled with Europium cryptate (Cisbio) and 23 nM anti-HIS labeled with D2 (Cisbio) in detection buffer (25 mM Tris pH 7.5, 100 mM NaCl, 100 mM EDTA, 0.01% Tween-20, and 200 mM KF) was added to the reaction mixture. The detection mixture was incubated for 3 hours at ambient temperature and the TR-FRET was detected with an EnVision multilabel plate reader (Perkin-Elmer) using the LANCE/DELFIA Dual Enh label from Perkin-Elmer (excitation filter: UV2 (TRF) 320 and emission filters: APC 665 and Europium 615).
`CC1(C)OCCn2c1nc1c(N3C[C@H]4CCC(F)(F)[C@H]4C3)nc(-c3cnc(N)nc3)nc12` (racemic) [Example 15, (±)-5-(4-((cis)-4,4-difluorohexahydrocyclopenta[c]-pyrrol-2(1H)-yl)-6,6-dimethyl-8,9-dihydro-6H-[1,4]oxazino[4,3-e]purin-2-yl)pyrimidin-2-amine] gave a Ki of 360 nM.
Compound `CC[C@@]1(C)OCCn2c1nc1c(N3CC4CC3C4)nc(-c3cnc(N)nc3)nc12` (single isomer, unassigned) [Example 93] has a Ki of 131 nM.
With `CC[C@]1(C)OCCn2c1nc1c(N3CC4CC3C4)nc(-c3cnc(N)nc3)nc12` (single isomer, unassigned) [Example 94] the Ki was 281 nM.
`C[C@@H]1COC(C)(C)c2nc3c(N4CC5CC4C5)nc(-c4cnc(N)nc4)nc3n21` (single isomer, unassigned) [Example 96] was tested, and the Ki was 42 nM.
`C[C@H]1COC(C)(C)c2nc3c(N4CC5CC4C5)nc(-c4cnc(N)nc4)nc3n21` (single isomer, unassigned) [Example 97] was tested, and the Ki was 62 nM.
Compound `Nc1ncc(-c2nc(N3CC4CC3C4)c3nc4n(c3n2)CCO[C@H]4C(F)(F)F)cn1` (single isomer, unassigned) [Example 98] has a Ki of 93.8 nM.
With `Nc1ncc(-c2nc(N3CC4CC3C4)c3nc4n(c3n2)CCO[C@@H]4C(F)(F)F)cn1` (single isomer, unassigned) [Example 99] the Ki was 866 nM.
With `C[C@@H]1COC(C)(C)c2nc3c(C4CC4)nc(-c4cnc(N)nc4)nc3n21` (single isomer, unassigned) [Example 101] the Ki was 102 nM.
Work on `C[C@H]1COC(C)(C)c2nc3c(C4CC4)nc(-c4cnc(N)nc4)nc3n21` (single isomer, unassigned) [Example 102] yielded a Ki of 157 nM.
In the case of `C[C@]1(C2CC2)OCCn2c1nc1c(C3CC3)nc(-c3cnc(N)nc3)nc12` (single isomer, unassigned) [Example 105], the Ki is reported as 211 nM.
`C[C@@]1(C2CC2)OCCn2c1nc1c(C3CC3)nc(-c3cnc(N)nc3)nc12` (single isomer, unassigned) [Example 106] was tested, and the Ki was 385 nM.
`C[C@@H]1OCCn2c1nc1c(N3CC4CC3C4)nc(-c3cnc(N)nc3)nc12` (single isomer, unassigned) [Example 107] showed a Ki of 59.7 nM.
In the case of `C[C@H]1OCCn2c1nc1c(N3CC4CC3C4)nc(-c3cnc(N)nc3)nc12` (single isomer, unassigned) [Example 108], the Ki is reported as 239 nM.
`C[C@@H]1Cn2c(nc3c(N4CC5CC4C5)nc(-c4cnc(N)nc4)nc32)C(C)(C)O1` (single isomer, unassigned) [Example 138] gave a Ki of 82.5 nM.
Compound `C[C@H]1Cn2c(nc3c(N4CC5CC4C5)nc(-c4cnc(N)nc4)nc32)C(C)(C)O1` (single isomer, unassigned) [Example 139] has a Ki of 149 nM.
`CO[C@@H]1CC2CC1CN2c1nc(-c2cnc(N)nc2)nc2c1nc1n2CCOC1(C)C` (single isomer, unassigned) [Example 140] showed a Ki of 72.7 nM.
`CO[C@H]1CC2CC1CN2c1nc(-c2cnc(N)nc2)nc2c1nc1n2CCOC1(C)C` (single isomer, unassigned) [Example 141] was tested, and the Ki was 392 nM.
Work on `CC1(C)OCCn2c1nc1c(N3CC4CC3C[C@H]4F)nc(-c3cnc(N)nc3)nc12` (single isomer, unassigned) [Example 142] yielded a Ki of 216 nM.
Work on `CC1(C)OCCn2c1nc1c(N3CC4CC3C[C@@H]4F)nc(-c3cnc(N)nc3)nc12` (single isomer, unassigned) [Example 143] yielded a Ki of 223 nM.
With `COCC1CCCN1c1nc(-c2cnc(N)nc2)nc2c1nc1n2CCOC1(C)C` (stereo not drawn) [Example 1, 5-(4-(2-(methoxymethyl)pyrrolidin-1-yl)-6,6-dimethyl-8,9-dihydro-6H-[1,4]oxazino[4,3-e]purin-2-yl)pyrimidin-2-amine] the Ki was 392 nM.
`CC1(C)OCCn2c1nc1c(N3CC(F)C3)nc(-c3cnc(N)nc3)nc12` [Example 2, 5-[1-(3-Fluoro-azetidin-1-yl)-8,8-dimethyl-5,6-dihydro-8H-7-oxa-2,4,4b,9-tetraaza-fluoren-3-yl]-pyrimidin-2-ylamine] was tested, and the Ki was 391 nM.
`Cc1c[nH]c2ncc(-c3nc(N4CC5CC4C5)c4nc5n(c4n3)CCOC5(C)C)cc12` [Example 3, 1-(2-Aza-bicyclo[2.2.1]hex-2-yl)-8,8-dimethyl-3-(3-methyl-1H-pyrrolo[2,3-b]pyridin-5-yl)-5,6-dihydro-8H-7-oxa-2,4,4b,9-tetraaza-fluorene] gave a Ki of 4.92 nM.
Compound `Cc1c[nH]c2ncc(-c3nc(N4CC(F)C4)c4nc5n(c4n3)CCOC5(C)C)cc12` [Example 4, 1-(3-Fluoro-azetidin-1-yl)-8,8-dimethyl-3-(3-methyl-1H-pyrrolo[2,3-b]pyridin-5-yl)-5,6-dihydro-8H-7-oxa-2,4,4b,9-tetraaza-fluorene] has a Ki of 9.74 nM.
`CC1(C)OCCn2c1nc1c(N3CC4CC4C3)nc(-c3cnc(N)nc3)nc12` (stereo not drawn) [Example 5, 5-[1-(3-Aza-bicyclo[3.1.0]hex-3-yl)-8,8-dimethyl-5,6-dihydro-8H-7-oxa-2,4,4b,9-tetraaza-fluoren-3-yl]-pyrimidin-2-ylamine] showed a Ki of 328 nM.
With `CC1(C)OCCn2c1nc1c(N3C[C@@H]4CC(F)(F)C[C@@H]4C3)nc(-c3cnc(N)nc3)nc12` [Example 6] the Ki was 727 nM.
Work on `CC1(C)OCCn2c1nc1c(N3CCC4CC43)nc(-c3cnc(N)nc3)nc12` (stereo not drawn) [Example 7, 5-[1-(2-Aza-bicyclo[3.1.0]hex-2-yl)-8,8-dimethyl-5,6-dihydro-8H-7-oxa-2,4,4b,9-tetraaza-fluoren-3-yl]-pyrimidin-2-ylamine] yielded a Ki of 199 nM.
Compound `CC1(C)OCCn2c1nc1c(N3CCC4(COC4)C3)nc(-c3cnc(N)nc3)nc12` [Example 8, 5-[8,8-Dimethyl-1-(2-oxa-6-aza-spiro[3.4]oct-6-yl)-5,6-hydro-8H-7-oxa-2,4,4b,9-tetraaza-fluoren-3-yl]-pyrimidin-2-ylamine] has a Ki of 469 nM.
With `CC1(C)OCCn2c1nc1c(N3CC4CC(F)(F)C4C3)nc(-c3cnc(N)nc3)nc12` (stereo not drawn) [Example 10, 5-[1-(6,6-Difluoro-3-aza-bicyclo[3.2.0]hept-3-yl)-8,8-dimethyl-5,6-dihydro-8H-7-oxa-2,4,4b,9-tetraaza-fluoren-3-yl]-pyrimidin-2-ylamine] the Ki was 157 nM.
In the case of `CC1(C)OCCn2c1nc1c(N3CC4CC3CC4(F)F)nc(-c3cnc(N)nc3)nc12` (stereo not drawn) [Example 11], the Ki is reported as 262 nM.
Work on `CC1(C)OCCn2c1nc1c(N3CCC4(CCOC4)C3)nc(-c3cnc(N)nc3)nc12` (stereo not drawn) [Example 12, 5-[8,8-Dimethyl-1-(2-oxa-7-aza-spiro[4.4]non-7-yl)-5,6-dihydro-8H-7-oxa-2,4,4b,9-tetraaza-fluoren-3-yl]-pyrimidin-2-ylamine] yielded a Ki of 584 nM.
In the case of `CC1(C)OCCn2c1nc1c(N3CC4CCOC4C3)nc(-c3cnc(N)nc3)nc12` (stereo not drawn) [Example 14, 5-[1-(Hexahydro-furo[2,3-c]pyrrol-5-yl)-8,8-dimethyl-5,6-dihydro-8H-7-oxa-2,4,4b,9-tetraaza-fluoren-3-yl]-pyrimidin-2-ylamine], the Ki is reported as 990 nM.
In the case of `CC1(C)OCCn2c1nc1c(N3CCCC34CCOC4)nc(-c3cnc(N)nc3)nc12` (stereo not drawn) [Example 16, 5-[8,8-Dimethyl-1-(7-oxa-1-aza-spiro[4.4]non-1-yl)-5,6-dihydro-8H-7-oxa-2,4,4b,9-tetraaza-fluoren-3-yl]-pyrimidin-2-ylamine], the Ki is reported as 320 nM.
In the case of `CC1(C)OCCn2c1nc1c(N3CCCC3)nc(-c3cnc(N)nc3)nc12` [Example 18, 5-(8,8-Dimethyl-1-pyrrolidin-1-yl-5,6-dihydro-8H-7-oxa-2,4,4b,9-tetraaza-fluoren-3-yl)-pyrimidin-2-ylamine], the Ki is reported as 402 nM.
